Assay results published in US10933146B2, “Cell-permeable imaging sensors and uses thereof” (Massachusetts Institute of Technology, priority 2017, dated 2021).

Legend:
[1] = MRI relaxivity of Mn-PDA contrast agents with BAPTA, with and without calcium, in buffer; assay type: physicochemical; conditions: 1.1 equivalents BAPTA, equimolar Ca^2+
Protocol: To examine the potential of Mn-PDA contrast agents to function as building blocks for the sensor design of FIG. 1A, MRI measurements were performed to assess the potential of BAPTA to interact with three paramagnetic chelates (FIG. 1A, inset). Addition of 1.1 equivalents of BAPTA to two of the Mn-PDA complexes, MnL1 and MnL3, produced significant effects on the T1-weighted MRI contrast induced by these compounds in buffer. These BAPTA-dependent contrast changes were reversed by addition of equimolar Ca^2+ (FIG. 1B). This was consistent with Mn-PDA moieties competing with Ca^2+ for binding to BAPTA molecules. The changes were quantified in terms of T1 relaxivity (r1) values, which were defined as the slope of the T1 relaxation rate (1/T1=R1) vs. concentration of each paramagnetic complex.
Most MRI data were acquired on a 7 T Bruker Biospec0 system using a T1-weighted 2D gradient echo sequence (echo time, TE=5 ms, repetition time, TR=100 ms; flip angle, FA=65 degrees (°)). Longitudinal relaxivity (r1) measurements were acquired using a 2D spin echo sequence (TE=11 ms, TR=125, 200, 400, 800, 1500, 3000, and 5000 ms), with in-plane resolution of 200×200 microns squared ((μm)^2) and 2 mm slice thickness. […] Stimulus-dependent R1 changes in cells were calculated as ΔR1/R1=[R1(incubated cells)−R1(naive cells)]/R1(naive cells). […]

[2] = Optical spectra / mass spectrometry of Mn-PDA complexes incubated with BAPTA over time; assay type: physicochemical; conditions: mixture with BAPTA, 0 h vs 24 h; confirmed by mass spectrometry
Description: In contrast, the MnL1 mixture with BAPTA developed a strong peak for uncomplexed L1 (m/z=347.37), indicating dissociation of the MnL1 complex.

- spectroscopic behavior in the presence of BAPTA over time (stability) [2]: sharp changes indicative of degradation
SMILES: O=C1c2ccccc2[O][Mn-]23[O]c4ccccc4C(=O)[N]2c2ccccc2[N]13 [MnL1]
- Calcium-dependent changes in r1 in the presence of BAPTA [1]: 105%
